In US7271288B2, “Aromatic compounds” (Kyushu University, National University Corporation, priority 2002, dated 2007):

Columns and labels:
[1] = Solubility observed when preparing samples for fluorescence measurement; assay type: physicochemical
Protocol: Gels were prepared from compounds 1 and 2 with cyclohexane (hereinafter referred to as cyclohexane gel(s)). The concentration of compound 1 or 2 in cyclohexane was adjusted to 5 mM. Chloroform solutions of compounds 1, 2 and 3 (5×10^−5 M) were also prepared. The fluorescence spectroscopic measurement was carried out for each gel. The excitation wavelength λex for the measurements was 340 nm.
As both compounds 1 and 2 were soluble in hot cyclohexane, solid samples were prepared by dissolving the compounds in cyclohexane followed by removing the solvent with a rotary evaporator at room temperature. Each of the solid samples thus prepared was then subjected to fluorescence spectroscopic measurement. As shown in FIG. 8 and FIG. 9, the difference in the spectra reflecting the difference in the gel was also observed in the solid state. Therefore, it was confirmed that the assembly structure of the gel is maintained even in the solid state.

Gelation test = assay type: physicochemical; design: key to gelation ability: I = insoluble; S = soluble; P = precipitate; G = gel; pG = partial gel; conditions: for gelation ability: 10 mM, 30 minutes at room temperature
Protocol: To a septum-capped test tube (i.d. 5 mm) were added compounds 1 or 2 and a solvent (100 μl) so that the concentration of the resultant solution was 10 mM and the solution was sonicated and heated with a heat gun until the solid was dissolved. After standing for 30 minutes at room temperature, the sample was turned upside down and judged visually. […] The samples with no observed gel formation were subjected to standing at a lower temperature for further judgment.

Row | Compound | solubility ([1]; hot cyclohexane) | gelation ability (Gelation test; Benzene) | gelation ability (Gelation test; Carbon tetrachloride) | gelation ability (Gelation test; Chloroform) | gelation ability (Gelation test; Cyclohexane) | gelation ability (Gelation test; Diphenyl ether) | gelation ability (Gelation test; Ethanol) | gelation ability (Gelation test; Ethyl acetate) | gelation ability (Gelation test; Hexane) | gelation ability (Gelation test; Hexanol) | gelation ability (Gelation test; Octane) | gelation ability (Gelation test; Tetrahydrofuran) | gelation ability (Gelation test; Toluene) | gelation ability (Gelation test; p-Xylene) | solubility ([1]; chloroform) | solubility ([1]; cyclohexane) | gelation (Gelation test; solvents not specified) | solubility (Gelation test; solvents not specified)
1 | CCCCCCCCCCCCNC(=O)COc1cc2c3cc(OCC(=O)NCCCCCCCCCCCC)c(OCC(=O)NCCCCCCCCCCCC)cc3c3cc(OCC(=O)NCCCCCCCCCCCC)c(OCC(=O)NCCCCCCCCCCCC)cc3c2cc1OCC(=O)NCCCCCCCCCCCC [Compound 1] | soluble | S | S | S | G | S | I | I | G | P | G | S | S | G | – | – | – | –
2 | CCCCNC(=O)COc1cc2c3cc(OCC(=O)NCCCC)c(OCC(=O)NCCCC)cc3c3cc(OCC(=O)NCCCC)c(OCC(=O)NCCCC)cc3c2cc1OCC(=O)NCCCC [Compound 2] | soluble | P | S | S | pG | S | I | I | I | I | I | P | P | P | – | – | – | –
3 | CCCCCCCCCCCCOc1cc2c3cc(OCCCCCCCCCCCC)c(OCCCCCCCCCCCC)cc3c3cc(OCCCCCCCCCCCC)c(OCCCCCCCCCCCC)cc3c2cc1OCCCCCCCCCCCC [Compound 3, reference compound] | – | – | – | – | – | – | – | – | – | – | – | – | – | – | soluble | soluble | no gelation was observed | high solubility
